Data taken from BindingDB's records for doi:10.1016/j.bioorg.2017.04.006 (China Pharmaceutical University, 2017).

What was measured:
[1] = biological target: Lysine-specific histone demethylase 1A (Homo sapiens, UniProt O60341); experiment: LSD1 Screening Assay; conditions: pH 7.5; 25 °C
Description: The LSD1 screening biochemical assay was performed by Shanghai ChemPartner Co. Ltd and the detailed protocol was shown as followed. The AlphaLISA assay of LSD1 (BPS Bioscience) was performed in modified Tris buffer (pH 7.5). Briefly, the compoundsin DMSO were transferred to assay plate by Echo 550, followed by pre-incubating with enzyme (final concentration is 5 nM) for 15 min at room temperature. The initiation of reactions were added H3K4me2 peptide solution (final concentration is 100 nM) to the reaction mixtures and then incubated for 60 min at roomtemperature. The reactions were terminated by the addition of the acceptor and donor beads mix (PerkinElmer) and incubated for 60 min at room temperature, and finally read on EnSpire (PerkinElmer) in Alpha Mode.

[2] = biological target: T1, Amine oxidase [flavin-containing] B (Homo sapiens, UniProt P27338); experiment: MAO-A and MAO-B Assay
T1 sequence (P27338 whole entry): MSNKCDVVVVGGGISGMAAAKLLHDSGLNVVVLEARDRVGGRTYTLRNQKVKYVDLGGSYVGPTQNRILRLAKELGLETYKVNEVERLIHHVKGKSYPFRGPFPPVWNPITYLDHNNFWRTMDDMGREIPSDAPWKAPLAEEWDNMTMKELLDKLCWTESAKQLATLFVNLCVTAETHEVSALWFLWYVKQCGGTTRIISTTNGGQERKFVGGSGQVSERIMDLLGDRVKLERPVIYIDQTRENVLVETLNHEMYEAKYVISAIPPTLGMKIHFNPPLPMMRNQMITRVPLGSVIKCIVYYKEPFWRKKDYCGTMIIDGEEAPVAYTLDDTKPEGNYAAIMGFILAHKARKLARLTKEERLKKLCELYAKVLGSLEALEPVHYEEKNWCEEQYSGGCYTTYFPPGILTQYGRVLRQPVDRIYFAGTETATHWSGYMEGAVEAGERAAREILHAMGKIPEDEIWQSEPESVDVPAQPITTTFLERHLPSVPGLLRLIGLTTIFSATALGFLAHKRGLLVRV
Text: (§1) The MAO-A and MAO-B is purchased from Active Motif (Cat#31502, Cat#31503). Biochemical Kit is purchased from Promega (MAO-Glo Assay, V1402). The inhibition of selectivity assay was preformed in light of the manufacturer's protocol.

[3] = biological target: T2, Amine oxidase [flavin-containing] A (Homo sapiens, UniProt P21397); experiment: MAO-A and MAO-B Assay
T2 sequence (P21397 whole entry): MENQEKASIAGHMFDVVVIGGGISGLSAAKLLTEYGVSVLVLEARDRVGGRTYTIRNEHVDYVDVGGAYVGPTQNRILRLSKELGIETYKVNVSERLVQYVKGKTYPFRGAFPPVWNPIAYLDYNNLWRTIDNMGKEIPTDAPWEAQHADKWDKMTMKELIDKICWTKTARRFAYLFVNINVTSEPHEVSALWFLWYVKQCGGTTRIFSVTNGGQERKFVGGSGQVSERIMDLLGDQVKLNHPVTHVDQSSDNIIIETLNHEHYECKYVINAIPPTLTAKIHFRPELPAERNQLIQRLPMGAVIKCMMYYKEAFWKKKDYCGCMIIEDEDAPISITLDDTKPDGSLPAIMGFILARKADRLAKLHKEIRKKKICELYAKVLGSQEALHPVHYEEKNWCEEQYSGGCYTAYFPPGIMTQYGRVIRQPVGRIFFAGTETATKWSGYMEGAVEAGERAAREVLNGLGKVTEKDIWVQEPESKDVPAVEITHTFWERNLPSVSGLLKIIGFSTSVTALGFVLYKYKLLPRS
Text: as §1

Structure (SMILES)	IC50 [1] [µM]	IC50 [2] [µM]	IC50 [3] [µM]
CN(CC(=O)Nc1cccc(S(=O)(=O)N2CCOCC2)c1)c1cc(Cl)ccc1O [2-((5-Chloro-2-hydroxyphenyl)(methyl)amino)-N-(3-(morpholinosulfonyl)phe-nyl)acetamide (7b)]	9.5	65.7	187
CC(Nc1cc(Cl)ccc1O)C(=O)Nc1cccc(S(=O)(=O)N(C)C)c1 (stereo not drawn)	12	–	–
CN(CC(=O)Nc1cccc(S(=O)(=O)N(C)C)c1)c1cc(Cl)ccc1O [2-((5-Chloro-2-hydroxyphenyl)(methyl)amino)-N-(3-(N,N-dimethylsulfamoyl)phenyl)acetamide (7e)]	13	–	–
C/C(=N\NC(=O)c1cccc(S(=O)(=O)N2CCOCC2)c1)c1cc(Cl)ccc1O [US8987335, 12]	0.011	–	–

Continued, values first:

IC50 [1] [µM]	IC50 [2] [µM]	IC50 [3] [µM]	Structure (SMILES)
11	–	–	CN(CC(=O)Nc1cccc(S(=O)(=O)N2CCCCC2)c1)c1cc(Cl)ccc1O [2-((5-Chloro-2-hydroxyphenyl)(methyl)amino)-N-(3-(piperidin-1-ylsulfonyl)phenyl)acetamide (7g)]
6.9	102	114	CC(Nc1cc(Cl)ccc1O)C(=O)Nc1cccc(S(=O)(=O)N2CCCCC2)c1 (stereo not drawn) [2-((5-Chloro-2-hydroxyphenyl)amino)-N-(3-(piperidin-1-ylsulfonyl)phenyl)propanamide (7h)]
13	–	–	CC(Nc1cc(Cl)ccc1O)C(=O)Nc1cccc(S(=O)(=O)N2CCOCC2)c1 (stereo not drawn) [2-((5-Chloro-2-hydroxyphenyl)amino)-N-(3-(morpholinosulfonyl)phenyl)propanamide (7c)]
14	–	–	CN(C)S(=O)(=O)c1cccc(NC(=O)CNc2cc(Cl)ccc2O)c1 [2-((5-Chloro-2-hydroxyphenyl)amino)-N-(3-(N,N-dimethylsulfamoyl)phenyl)-acetamide (7d)]
13	–	–	O=C(CNc1cc(Cl)ccc1O)Nc1cccc(S(=O)(=O)N2CCOCC2)c1 [2-((5-Chloro-2-hydroxyphenyl)amino)-N-(3-(morpholinosulfonyl)phenyl)acetamide (7a)]
